Patent US20260285850A1, “SUBSTITUTED OXAZOLIDINONES AND IMIDAZOLINONES AS HERBICIDES” (FMC CORPORATION, priority 2023, published 2026)

Key:
Type in all cases: in vivo
[1] = tested on: horseweed (Erigeron canadensis); assay: Test A postemergence application, visual injury rating 0-100
In short: (§1)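 Compound in a non-phytotoxic, surfactant-containing solvent is applied either as a directed soil spray before seedlings emerge or onto emerged plants 2-10 cm tall; pots hold a loam-sand blend. Plants grow 10 days under greenhouse conditions and are rated by eye against untreated controls (0 no effect, 100 complete control).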

kochia (Bassia scoparia) [2] = assay: as above
In short: as §1

[3] = tested on: green foxtail (Setaria viridis); assay: as above
In short: as §1

corn (Zea mays) [4] = assay: as above
In short: as §1

[5] = tested on: wheat (Triticum aestivum); assay: as above
In short: as §1

soybean (Glycine max) [6] = assay: as above
In short: as §1

[7] = tested on: palmer (palmer amaranth, palmer pigweed, Amaranthus palmeri); assay: as above
In short: as §1

[8] = tested on: oat, wild (wild oat, Avena fatua); assay: as above
In short: as §1

[9] = tested on: barnyardgrass (Echinochloa crus-galli); assay: as above
In short: as §1

[10] = tested on: blackgrass (Alopecurus myosuroides); assay: as above
In short: as §1

[11] = tested on: ryegrass, Italian (italian ryegrass, Lolium multiflorum); assay: as above
In short: as §1

[12] = tested on: galium (catchweed bedstraw, Galium aparine); assay: as above
In short: as §1

[13] = tested on: ragweed (common ragweed, Ambrosia artemisiifolia); assay: as above
In short: as §1

kochia (Bassia scoparia) [14] = assay: Test A preemergence soil spray, visual injury rating 0-100; details: 10 days
In short: as §1

[15] = tested on: green foxtail (Setaria viridis); assay: as above; details: 10 days
In short: as §1

corn (Zea mays) [16] = assay: as above; details: 16 g ai/ha, 0 to 100 scale, 10 days
In short: as §1

[17] = tested on: wheat (Triticum aestivum); assay: as above; details: 10 days
In short: as §1

soybean (Glycine max) [18] = assay: as above; details: 10 days
In short: as §1

[19] = tested on: palmer (palmer amaranth, palmer pigweed, Amaranthus palmeri); assay: as above; details: 62 g ai/ha, 10 days, 0 = no effect, 100 = complete control
In short: as §1

[20] = tested on: oat, wild (wild oat, Avena fatua); assay: as above; details: 10 days
In short: as §1

[21] = tested on: barnyardgrass (Echinochloa crus-galli); assay: as above; details: 10 days
In short: as §1

[22] = tested on: blackgrass (Alopecurus myosuroides); assay: as above; details: 10 days
In short: as §1

[23] = tested on: ryegrass, Italian (italian ryegrass, Lolium multiflorum); assay: as above; details: 10 days
In short: as §1

[24] = tested on: ragweed (common ragweed, Ambrosia artemisiifolia); assay: as above; details: 10 days
In short: as §1

[25] = tested on: barnyardgrass (Echinochloa crusgalli); assay: Test B flooded paddy test, visual plant response rating 0-100; details: 250 g ai/ha, Flood, applied to paddy water, evaluated after 13 days
In short: (§2)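 Compounds applied to standing paddy water (3 cm above soil, maintained for the test duration) on 2-leaf-stage plants; visual rating vs controls at 13 days, greenhouse.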

[26] = tested on: sedge, umbrella (small-flower umbrella sedge, Cyperus difformis); assay: as above; details: 250 g ai/ha, Flood, applied to paddy water, evaluated after 13 days
In short: as §2

[27] = tested on: ducksalad (Heteranthera limosa); assay: as above; details: 250 g ai/ha, Flood, applied to paddy water, evaluated after 13 days
In short: as §2

rice (Oryza sativa) = assay: as above; details: 250 g ai/ha, Flood, applied to paddy water, evaluated after 13 days
In short: as §2

[28] = 62 g ai/ha, postemergence, 10 days, 0 = no effect, 100 = complete control
[29] = Postemergence, 16 g ai/ha, greenhouse 10 days, 0 no effect, 100 complete control
[30] = 62 g ai/ha, 0 = no effect, 100 = complete control

Structure (SMILES): CCOC(=O)C1=CCC(NC(=O)C2(C)CN(c3cc(F)cc(Cl)c3)C(=O)O2)C1 (centres unmarked) [Compound 133]
- Horseweed plant response rating (0-100) [1, 28]: 80
- Horseweed plant response rating (0 to 100 scale) [1, 29]: 0
- Kochia plant response rating (0-100) (kochia (Bassia scoparia) [2]; [28]): 90
- Kochia plant response rating (0 to 100 scale) (kochia (Bassia scoparia) [2]; [29]): 80
- Foxtail, Green plant response rating (0-100) [3, 28]: 90
- Foxtail, Green plant response rating (0 to 100 scale) [3, 29]: 90
- Corn plant response rating (0-100) (corn (Zea mays) [4]; [28]): 100
- Corn plant response rating (0 to 100 scale) (corn (Zea mays) [4]; [29]): 100
- Wheat plant response rating (0-100) [5, 28]: 90
- Wheat plant response rating (0 to 100 scale) [5, 29]: 80
- Soybean plant response rating (0-100) (soybean (Glycine max) [6]; [28]): 70
- Soybean plant response rating (0 to 100 scale) (soybean (Glycine max) [6]; [29]): 60
- Pigweed, Palmer plant response rating (0-100) [7, 28]: 90
- Pigweed, Palmer plant response rating (0 to 100 scale) [7, 29]: 90
- Oat, Wild plant response rating (0-100) [8, 28]: 70
- Oat, Wild plant response rating (0 to 100 scale) [8, 29]: 40
- Barnyardgrass plant response rating (0-100) [9, 28]: 100
- Barnyardgrass plant response rating (0 to 100 scale) [9, 29]: 100
- Blackgrass plant response rating (0-100) [10, 28]: 90
- Blackgrass plant response rating (0 to 100 scale) [10, 29]: 70
- Ryegrass, Italian plant response rating (0-100) [11, 28]: 90
- Ryegrass, Italian plant response rating (0 to 100 scale) [11, 29]: 60
- Galium plant response rating (0-100) [12, 28]: 70
- Galium plant response rating (0 to 100 scale) [12, 29]: 60
- Ragweed plant response rating (0-100) [13, 28]: 70
- Ragweed plant response rating (0 to 100 scale) [13, 29]: 30
- Kochia plant response rating (kochia (Bassia scoparia) [14]; 16 g ai/ha, 0 to 100 scale): 0
- Kochia plant response rating (0-100) (kochia (Bassia scoparia) [14]; [30]): 20
- Foxtail, Green plant response rating ([15]; 16 g ai/ha, 0 to 100 scale): 0
- Foxtail, Green plant response rating (0-100) [15, 30]: 90
- Corn plant response rating (corn (Zea mays) [16]): 0
- Wheat plant response rating ([17]; 16 g ai/ha, 0 to 100 scale): 0
- Wheat plant response rating (0-100) [17, 30]: 90
- Soybean plant response rating (soybean (Glycine max) [18]; 16 g ai/ha, 0 to 100 scale): 0
- Soybean plant response rating (0-100) (soybean (Glycine max) [18]; [30]): 0
- Pigweed, Palmer plant response rating (0-100) [19]: 90
- Oat, Wild plant response rating ([20]; 16 g ai/ha, 0 to 100 scale): 0
- Oat, Wild plant response rating (0-100) [20, 30]: 0
- Barnyardgrass plant response rating ([21]; 16 g ai/ha, 0 to 100 scale): 0
- Barnyardgrass plant response rating (0-100) [21, 30]: 80
- Blackgrass plant response rating ([22]; 16 g ai/ha, 0 to 100 scale): 0
- Blackgrass plant response rating (0-100) [22, 30]: 20
- Ryegrass, Italian plant response rating ([23]; 16 g ai/ha, 0 to 100 scale): 10
- Ryegrass, Italian plant response rating (0-100) [23, 30]: 80
- Ragweed plant response rating ([24]; 16 g ai/ha, 0 to 100 scale): 0
- Ragweed plant response rating (0-100) [24, 30]: 0
- Plant response rating, Barnyardgrass (0 to 100 scale, 0 is no effect and 100 is complete control) [25]: 95
- Plant response rating, Sedge, Umbrella (0 to 100 scale, 0 is no effect and 100 is complete control) [26]: 98
- Plant response rating, Ducksalad (0 to 100 scale, 0 is no effect and 100 is complete control) [27]: 85
- Plant response rating, Rice (0 to 100 scale, 0 is no effect and 100 is complete control) (rice (Oryza sativa)): 85
